Laboratory results taken from ChEMBL document CHEMBL1201862, “PubChem BioAssay data set” (2004).
The source made the active and inactive calls.

Experiments:
Protein RecA = target: T1, Protein RecA (Mycobacterium tuberculosis, UniProt P9WHJ3); assay: Fluorescence Cell-Free Homogeneous Dose Retest to Identify Inhibitors of RecA-Intein Splicing Activity. [Related pubchem assays (depositor defined):AID2097, AID2223, AID489010, AID492950]; type: functional
T1 sequence (P9WHJ3 whole entry): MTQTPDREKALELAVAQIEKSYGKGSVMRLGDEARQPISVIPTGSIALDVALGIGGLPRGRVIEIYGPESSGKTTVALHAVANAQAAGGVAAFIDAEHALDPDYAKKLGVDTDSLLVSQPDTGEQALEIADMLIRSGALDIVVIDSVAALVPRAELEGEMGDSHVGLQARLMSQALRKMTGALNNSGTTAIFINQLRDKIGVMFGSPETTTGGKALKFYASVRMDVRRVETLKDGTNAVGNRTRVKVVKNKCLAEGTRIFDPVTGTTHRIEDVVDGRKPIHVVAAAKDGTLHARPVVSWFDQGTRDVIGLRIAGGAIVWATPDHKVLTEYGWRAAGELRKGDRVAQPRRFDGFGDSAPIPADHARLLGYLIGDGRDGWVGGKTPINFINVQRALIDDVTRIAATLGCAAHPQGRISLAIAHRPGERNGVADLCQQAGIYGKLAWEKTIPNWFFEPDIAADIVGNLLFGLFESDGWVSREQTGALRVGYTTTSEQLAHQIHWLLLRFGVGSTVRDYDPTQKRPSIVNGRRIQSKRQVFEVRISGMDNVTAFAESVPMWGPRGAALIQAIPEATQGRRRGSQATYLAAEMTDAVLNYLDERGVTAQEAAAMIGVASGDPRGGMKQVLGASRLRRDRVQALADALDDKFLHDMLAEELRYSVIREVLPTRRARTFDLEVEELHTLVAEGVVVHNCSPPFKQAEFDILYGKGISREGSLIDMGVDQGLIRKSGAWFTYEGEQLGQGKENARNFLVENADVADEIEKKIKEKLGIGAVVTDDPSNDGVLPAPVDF

BJ [1] = assay: growth inhibition of engineered Ras-driven BJ cells – cell-based, alamar blue fluorescence, cherrypicked samples, dose response (AID 2631); type: functional; details: Homo sapiens;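 further: confirmatory dose-response assay in RAS-dependent BJ fibroblasts engineered with TERT, LT and ST, with cytotoxicity read by fluorescence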
[2] = target: T2, Replicative DNA helicase DnaB (Mycobacterium tuberculosis, UniProt P9WMR3); assay: DnaB intein splicing inhibitors, dose response, biochemical, cell-free fluorescence (AID 449749); type: functional
T2 sequence (P9WMR3 whole entry): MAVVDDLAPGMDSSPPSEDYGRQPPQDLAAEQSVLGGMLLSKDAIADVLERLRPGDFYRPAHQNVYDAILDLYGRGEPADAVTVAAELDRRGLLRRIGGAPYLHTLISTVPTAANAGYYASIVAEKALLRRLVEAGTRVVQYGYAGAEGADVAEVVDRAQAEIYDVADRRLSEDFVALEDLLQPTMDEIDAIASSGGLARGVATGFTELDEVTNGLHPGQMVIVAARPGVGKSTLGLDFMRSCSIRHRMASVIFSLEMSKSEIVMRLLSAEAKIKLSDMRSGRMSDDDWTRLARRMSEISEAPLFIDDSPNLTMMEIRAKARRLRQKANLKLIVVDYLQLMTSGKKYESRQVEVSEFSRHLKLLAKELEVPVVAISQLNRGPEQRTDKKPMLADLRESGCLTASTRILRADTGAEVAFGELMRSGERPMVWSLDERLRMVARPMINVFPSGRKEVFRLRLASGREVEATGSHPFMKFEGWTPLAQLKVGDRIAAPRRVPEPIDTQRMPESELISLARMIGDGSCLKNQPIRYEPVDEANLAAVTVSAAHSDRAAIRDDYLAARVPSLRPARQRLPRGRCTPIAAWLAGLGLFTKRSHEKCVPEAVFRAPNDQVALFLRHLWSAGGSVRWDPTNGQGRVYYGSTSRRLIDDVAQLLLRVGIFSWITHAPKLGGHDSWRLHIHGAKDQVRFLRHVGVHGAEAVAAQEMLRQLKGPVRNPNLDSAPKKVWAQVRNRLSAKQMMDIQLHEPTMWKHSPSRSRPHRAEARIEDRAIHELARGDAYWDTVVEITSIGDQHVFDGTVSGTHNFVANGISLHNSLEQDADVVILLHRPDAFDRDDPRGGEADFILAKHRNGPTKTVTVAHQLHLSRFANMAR

[3] = Luminescence Cell-Based Dose Retest to Confirm Inhibitors of Cancer Stem Cells. [Related pubchem assays (depositor defined):AID2717, AID2721]; type: functional; details: Homo sapiens
[4] = DRD fibroblast viability loss – cell-based, non-viral oncogenic, luminescence, dose response (AID 1934); type: functional; details: Homo sapiens
BJ [5] = assay: cells; type: functional, cell-based; details: Homo sapiens
BJ [6] = assay: BJ-TERT fibroblast viability loss – cell-based, RAS-independent, luminescence, dose response (AID 1933); type: functional; details: Homo sapiens
BJ [7] = assay: BJ-TERT-LT-ST fibroblast viability loss – cell-based, RAS-independent, luminescence, dose response (AID 1935); type: functional; details: Homo sapiens;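 further: BJ fibroblasts immortalized with TERT plus LT and ST oncogenes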
[8] = target: Glutathione S-transferase omega-1 (Homo sapiens, UniProt P78417); assay: IC50 of human GSTO1 inhibition by gel ABPP – biochemical, SE-Rh probe, in-gel fluorescence, powder samples, late-stage follow-up (AID 463081); type: functional
[9] = general cell-killing toxicity readout – plate reader, dry powder samples, cytotoxicity control for PAX8 inhibitor project, dose response (AID 743021); type: functional, cell-based
[10] = Luminescence Cell-Based Dose Confirmation HTS to Identify Activators of 5'UTR Stem-Loop Driven Alpha-Synuclein mRNA Translation in H4 Neuroglioblastoma Cells. [Related pubchem assays: 1829 (Project Summary), 1814 (Primary HTS)]; type: functional
[11] = Luminescence Cell-Based Dose Response HTS to Identify Activators of Luciferase Translation or Activity in H4 […] Cells. [Related pubchem assays: 1829 (Project Summary), 1814 (Primary HTS)]; type: functional
Paired box protein Pax-8 = Paired box protein Pax-8 (Homo sapiens, UniProt Q06710); assay: PAX8 transcriptional activity inhibition in RMG-I – RMG-I cells, luciferase, cherry-pick, dose response (AID 687027); type: functional, cell-based;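 further: luciferase reporter driven by Pax8 target thyroperoxidase promoter measured by SteadyGlo luminescence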
H4 = assay: Luminescence Cell-Based Dose Response HTS to Identify Activators of 5'UTR Stem-Loop Driven Prion Protein mRNA Translation in H4 Neuroglioblastoma Cells. [Related pubchem assays: 1829 (Project Summary), 1814 (Primary HTS)]; type: functional; details: Homo sapiens
[12] = target: DNA dC->dU-editing enzyme APOBEC-3A (Homo sapiens, UniProt P31941); assay: A3A deaminase inhibition for selectivity – biochemical, dose response (AID 504722); type: functional
[13] = target: DNA dC->dU-editing enzyme APOBEC-3G (Homo sapiens, UniProt Q9HC16); assay: Dose Response confirmation of small molecule APOBEC3G DNA Deaminase Inhibitors via a fluorescence-based single-stranded DNA deaminase assay. [Related pubchem assays (depositor defined):AID493012, AID493028]; type: functional
Coagulation factor XII = target: T3, Coagulation factor XII (Homo sapiens, UniProt P00748); assay: activated coagulation factor XII inhibitor potency, concentration-effect curve, cell-free (AID 716); type: functional
T3 sequence (P00748 whole entry): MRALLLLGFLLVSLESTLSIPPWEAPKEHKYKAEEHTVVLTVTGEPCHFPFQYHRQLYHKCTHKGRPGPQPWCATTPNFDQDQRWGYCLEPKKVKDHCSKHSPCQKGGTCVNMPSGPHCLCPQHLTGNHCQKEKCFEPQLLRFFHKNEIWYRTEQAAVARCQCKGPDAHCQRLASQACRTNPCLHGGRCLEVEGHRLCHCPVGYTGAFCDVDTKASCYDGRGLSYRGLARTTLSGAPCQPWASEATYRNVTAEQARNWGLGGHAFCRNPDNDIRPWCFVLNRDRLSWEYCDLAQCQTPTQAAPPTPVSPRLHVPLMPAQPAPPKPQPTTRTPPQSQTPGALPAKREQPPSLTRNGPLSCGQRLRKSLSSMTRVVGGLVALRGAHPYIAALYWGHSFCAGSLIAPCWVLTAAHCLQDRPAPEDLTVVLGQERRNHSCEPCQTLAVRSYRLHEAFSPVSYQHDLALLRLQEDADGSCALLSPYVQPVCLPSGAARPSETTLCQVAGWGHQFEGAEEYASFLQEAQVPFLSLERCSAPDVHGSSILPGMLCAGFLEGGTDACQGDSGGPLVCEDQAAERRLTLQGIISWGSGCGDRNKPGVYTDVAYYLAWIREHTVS

Trypanosoma cruzi = assay: anti-trypanosomal activity in host cells – cell-based, plate reader, dry powder, set 3, dose response (AID 493197); type: functional
[14] = NIH/3T3 cell viability loss – mouse embryonic fibroblasts, dry powder, set 2, cytotoxicity control, dose response (AID 493247); type: functional, cell-based; details: Fibroblast

Chain of DNA dC->dU-editing enzyme APOBEC-3G (Q9HC16 whole entry): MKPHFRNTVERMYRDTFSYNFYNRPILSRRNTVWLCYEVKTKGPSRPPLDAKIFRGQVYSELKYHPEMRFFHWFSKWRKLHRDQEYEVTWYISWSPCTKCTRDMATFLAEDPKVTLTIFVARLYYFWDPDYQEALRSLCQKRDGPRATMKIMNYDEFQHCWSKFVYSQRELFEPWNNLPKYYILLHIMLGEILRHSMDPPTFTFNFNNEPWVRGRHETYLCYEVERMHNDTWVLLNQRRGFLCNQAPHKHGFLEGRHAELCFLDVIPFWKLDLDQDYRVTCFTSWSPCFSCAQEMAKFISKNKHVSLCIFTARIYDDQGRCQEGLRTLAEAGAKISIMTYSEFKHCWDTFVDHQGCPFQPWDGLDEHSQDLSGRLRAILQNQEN
Chain of Glutathione S-transferase omega-1 (P78417 whole entry): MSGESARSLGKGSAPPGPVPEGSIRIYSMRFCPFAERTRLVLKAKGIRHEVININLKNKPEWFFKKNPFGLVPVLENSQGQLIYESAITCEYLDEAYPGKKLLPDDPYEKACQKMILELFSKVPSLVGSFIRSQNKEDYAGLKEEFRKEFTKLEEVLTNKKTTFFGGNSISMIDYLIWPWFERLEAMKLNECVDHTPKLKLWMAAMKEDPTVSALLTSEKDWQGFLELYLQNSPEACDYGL
Chain of Paired box protein Pax-8 (Q06710 whole entry): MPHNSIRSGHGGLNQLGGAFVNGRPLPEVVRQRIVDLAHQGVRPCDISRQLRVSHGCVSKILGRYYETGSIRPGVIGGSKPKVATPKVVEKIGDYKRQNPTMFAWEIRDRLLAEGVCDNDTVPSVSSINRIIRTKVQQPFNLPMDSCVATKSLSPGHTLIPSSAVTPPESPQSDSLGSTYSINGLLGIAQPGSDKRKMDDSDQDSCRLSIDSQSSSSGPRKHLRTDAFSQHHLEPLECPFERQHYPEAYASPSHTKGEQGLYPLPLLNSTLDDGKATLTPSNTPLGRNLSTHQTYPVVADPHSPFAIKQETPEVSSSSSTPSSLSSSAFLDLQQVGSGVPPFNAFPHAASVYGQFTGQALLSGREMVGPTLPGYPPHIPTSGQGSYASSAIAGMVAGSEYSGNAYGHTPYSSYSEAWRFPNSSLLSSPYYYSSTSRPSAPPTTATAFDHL
Chain of DNA dC->dU-editing enzyme APOBEC-3A (P31941 whole entry): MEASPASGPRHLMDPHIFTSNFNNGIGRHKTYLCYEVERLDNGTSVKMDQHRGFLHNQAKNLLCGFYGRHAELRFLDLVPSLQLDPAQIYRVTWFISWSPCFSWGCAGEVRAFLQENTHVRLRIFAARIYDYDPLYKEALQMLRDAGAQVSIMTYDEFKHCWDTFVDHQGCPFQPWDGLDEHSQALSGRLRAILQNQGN

## O=C(NC1CCCCC1)C(c1cccnc1)N(C(=O)CCl)c1ccc(F)cc1 (centres undefined)
Protein RecA
  EC50: 0.816 µM (active)
BJ [1]
  EC50: 0.535 µM (active)
[2]
  AC50: 5.76 µM (active)
[3]
  AC50: 1.54 µM (active)
[4]
  EC50: 2.48 µM (active)
BJ [5]
  EC50: 5.32 µM (inconclusive)
BJ [6]
  EC50: 1.3 µM (inconclusive)
BJ [7]
  EC50: 7.25 µM (active)
[8]
  IC50: 0.054 µM (active)
[9]
  AC50: 7.37 µM (active)
[10]
  EC50: > 120 µM (not active)
[11]
  EC50: 10.1 µM (active)
Paired box protein Pax-8
  AC50: 1.43 µM (active)
H4
  EC50: > 120 µM (not active)

## Cc1ccc(-n2c(-c3ccco3)n[nH]c2=S)cc1
[12]
  IC50: > 100 µM (inactive)
[13]
  IC50: 4.57 µM (active)

## COc1ccc2oc(C)c(C(=O)Cn3ccnc3)c2c1
Coagulation factor XII
  IC50: > 50 µM (inactive)

## O=C(CCC(=O)Nc1ccccc1)N/N=C/c1ccc([N+](=O)[O-])o1
Trypanosoma cruzi
  AC50: 0.125 µM (active)
[14]
  AC50: 5.35 µM (active)
